According to patent US20260022143A1, “Cyclic Peptide Inhibitors of IL-23” (JANSSEN PHARMACEUTICA NV, priority 2022, published 2026):
Structures can show the parent of a compound that is named as a salt. Positions of bridges follow the written chain, without caps; N, C: chain ends. Non-standard residues stand in square brackets, D forms with d. Residues, ends and D or L forms follow the SMILES beside them. *: point of attachment. Me3N+(CH2)2O(CH2)2O(CH2)2CO = C[N+](C)(C)CCOCCOCCC(=O)*; Trp(7-CF3) = N[C@@H](Cc1c[nH]c2c(C(F)(F)F)cccc12)C(=O)O; Trp(7-Me) = Cc1cccc2c(C[C@H](N)C(=O)O)c[nH]c12; Hexanoyl(6-NMe3+) = C[N+](C)(C)CCCCCC(=O)*; Lys(Me3) = C[N+](C)(C)CCCC[C@H](N)C(=O)O; 2Nal = N[C@@H](Cc1ccc2ccccc2c1)C(=O)O; AEF = NCCOc1ccc(C[C@H](N)C(=O)O)cc1; 3Pal = N[C@@H](Cc1cccnc1)C(=O)O; Lys(Me) = CNCCCC[C@H](N)C(=O)O; X7 = COCCOCCOCCOCCOCCOCCC(=O)*; Pen = CC(C)(S)[C@H](N)C(=O)O; Thp = NC1(C(=O)O)CCOCC1; Me2NCH2CH2 = CN(C)CC*; Tfa = O=C(C(F)(F)F)*; Sar = CNCC(=O)O

Test: Exposed Polar Surface Area (EPSA)
Assay type: physicochemical
Details: SFC on Chirex 3014 column; sample 1 mM DMSO stock; read-out: EPSA
How it was run: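 Polarity measured by SFC on a Chirex 3014 column (35 °C, 4 mL/min) with methanol/ammonium formate in CO2 as gradient eluent. Retention times were normalised to EPSA (Å^2) against eight reference compounds.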

SMILES | EPSA
CC(=O)NCCCC[C@@H]1NC(=O)[C@H](Cc2c[nH]c3c(C)cccc23)NC(=O)[C@H]([C@@H](C)O)NC(=O)[C@H](CC(N)=O)NC(=O)[C@@H](NC(=O)[C@@H](CCCCNC(=O)CCOCCOCC[N+](C)(C)C)NC(C)=O)C(C)(C)SSC(C)(C)[C@@H](C(=O)N[C@@H](Cc2ccc(OCCN)cc2)C(=O)N[C@@H](Cc2ccc3ccccc3c2)C(=O)NC2(C(=O)N[C@@H](CCC(=O)O)C(=O)N[C@@H](CC(N)=O)C(=O)N[C@@H](Cc3cccnc3)C(=O)N(C)CC(N)=O)CCOCC2)NC1=O [compound 84] (Ac-[dK](Me3N+(CH2)2O(CH2)2O(CH2)2CO)[Pen]NT[Trp(7-Me)]K(Ac)[Pen][AEF][2Nal][Thp]EN[3Pal][Sar]-NH2; disulfide 2-7) | 166 A^2
CC(=O)NCCCC[C@@H]1NC(=O)[C@H](Cc2c[nH]c3c(C)cccc23)NC(=O)[C@H]([C@@H](C)O)NC(=O)[C@H](CC(N)=O)NC(=O)[C@@H](NC(C)=O)C(C)(C)SSC(C)(C)[C@@H](C(=O)N[C@@H](Cc2ccc(OCCN)cc2)C(=O)N[C@@H](Cc2ccc3ccccc3c2)C(=O)NC2(C(=O)N[C@@H](CCCCNC(=O)CCOCCOCC[N+](C)(C)C)C(=O)N[C@@H](CC(N)=O)C(=O)N[C@@H](Cc3cccnc3)C(=O)N(C)CC(N)=O)CCOCC2)NC1=O [compound 86] (Ac-[Pen]NT[Trp(7-Me)]K(Ac)[Pen][AEF][2Nal][Thp]K(Me3N+(CH2)2O(CH2)2O(CH2)2CO)N[3Pal][Sar]-NH2; disulfide 1-6) | 150 A^2
CC(=O)NCCCC[C@@H]1NC(=O)[C@H](Cc2c[nH]c3c(C)cccc23)NC(=O)[C@H]([C@@H](C)O)NC(=O)[C@H](CC(N)=O)NC(=O)[C@@H](NC(=O)CCCCC[N+](C)(C)C)C(C)(C)SSC(C)(C)[C@@H](C(=O)N[C@@H](Cc2ccc(OCCN)cc2)C(=O)N[C@@H](Cc2ccc3ccccc3c2)C(=O)NC2(C(=O)N[C@@H](CCCCNC(C)=O)C(=O)N[C@@H](CC(N)=O)C(=O)N[C@@H](Cc3cccnc3)C(=O)N(C)CC(N)=O)CCOCC2)NC1=O [compound 89] ({Hexanoyl(6-NMe3+)}-[Pen]NT[Trp(7-Me)]K(Ac)[Pen][AEF][2Nal][Thp]K(Ac)N[3Pal][Sar]-NH2; disulfide 1-6 (inferred)) | 160 A^2
COCCOCCOCCOCCOCCOCCC(=O)N(C)CCCC[C@H](NC(=O)C1(NC(=O)[C@H](Cc2ccc3ccccc3c2)NC(=O)[C@H](Cc2ccc(OCCN)cc2)NC(=O)[C@H]2NC(=O)[C@H](CCCCNC(C)=O)NC(=O)[C@H](Cc3c[nH]c4c(C)cccc34)NC(=O)[C@H]([C@@H](C)O)NC(=O)[C@H](CC(N)=O)NC(=O)[C@@H](NC(C)=O)C(C)(C)SSC2(C)C)CCOCC1)C(=O)N[C@@H](CC(N)=O)C(=O)N[C@@H](Cc1cccnc1)C(=O)N(C)CC(N)=O [compound 92] (Ac-[Pen]NT[Trp(7-Me)]K(Ac)[Pen][AEF][2Nal][Thp][Lys(Me)](X7)N[3Pal][Sar]-NH2; disulfide 1-6) | 151 A^2
CC(=O)N(C)CCCC[C@@H]1NC(=O)[C@H](Cc2c[nH]c3c(C)cccc23)NC(=O)[C@H]([C@@H](C)O)NC(=O)[C@H](CC(=O)N(C)C)NC(=O)[C@@H](NC(=O)[C@H](CCCC[N+](C)(C)C)NC(=O)C(F)(F)F)C(C)(C)SSC(C)(C)[C@@H](C(=O)N[C@@H](Cc2ccc(OCCN(C)C)cc2)C(=O)N[C@@H](Cc2ccc3ccccc3c2)C(=O)NC2(C(=O)N[C@@H](CCC(=O)O)C(=O)N[C@@H](CC(N)=O)C(=O)N[C@@H](Cc3cccnc3)C(=O)N(C)CC(=O)N(C)C)CCOCC2)NC1=O [compound 93, CF3CO-K(Me)3-Pen(3)-N(N(Me)2)-T-7MeW-K(NMeAc)-Pen(3)-AEF(N(Me)2)-2Nal-THP-E-N-3Pya-Sar-CON(Me)2] (Tfa-[Lys(Me3)][Pen]D(NMe2)T[Trp(7-Me)][Lys(Me)](Ac)[Pen]Y(Me2NCH2CH2)[2Nal][Thp]EN[3Pal][Sar]-NMe2; disulfide 2-7) | 151 A^2

More lines, now with the values ahead:

EPSA | SMILES
151 A^2 | CC(=O)NCCCC[C@@H]1NC(=O)[C@H](Cc2c[nH]c3c(C)cccc23)NC(=O)[C@H]([C@@H](C)O)NC(=O)[C@H](CC(N)=O)NC(=O)[C@@H](NC(C)=O)C(C)(C)SSC(C)(C)[C@@H](C(=O)N[C@@H](Cc2ccc(OCCN)cc2)C(=O)N[C@@H](Cc2ccc3ccccc3c2)C(=O)NC2(C(=O)N[C@@H](CCCCNC(=O)CCCCC[N+](C)(C)C)C(=O)N[C@@H](CC(N)=O)C(=O)N[C@@H](Cc3cccnc3)C(=O)N(C)CC(N)=O)CCOCC2)NC1=O [compound 85] (Ac-[Pen]NT[Trp(7-Me)]K(Ac)[Pen][AEF][2Nal][Thp]K(Hexanoyl(6-NMe3+))N[3Pal][Sar]-NH2; disulfide 1-6)
158 A^2 | CC(=O)NCCCC[C@@H]1NC(=O)[C@H](Cc2c[nH]c3c(C)cccc23)NC(=O)[C@H]([C@@H](C)O)NC(=O)[C@H](CC(N)=O)NC(=O)[C@@H](NC(=O)[C@@H](CCCCNC(=O)CCOCCOCC[N+](C)(C)C)NC(C)=O)C(C)(C)SSC(C)(C)[C@@H](C(=O)N[C@@H](Cc2ccc(OCCN)cc2)C(=O)N[C@@H](Cc2ccc3ccccc3c2)C(=O)NC2(C(=O)N[C@@H](CCCCNC(C)=O)C(=O)N[C@@H](CC(N)=O)C(=O)N[C@@H](Cc3cccnc3)C(=O)N(C)CC(N)=O)CCOCC2)NC1=O [compound 88] (Ac-[dK](Me3N+(CH2)2O(CH2)2O(CH2)2CO)[Pen]NT[Trp(7-Me)]K(Ac)[Pen][AEF][2Nal][Thp]K(Ac)N[3Pal][Sar]-NH2; disulfide 2-7)
145 A^2 | Cc1cccc2c(C[C@@H]3NC(=O)[C@H]([C@@H](C)O)NC(=O)[C@H](CC(=O)N(C)C)NC(=O)[C@@H](NC(=O)CCCCC[N+](C)(C)C)C(C)(C)SSC(C)(C)[C@@H](C(=O)N[C@@H](Cc4ccc(OCCN(C)C)cc4)C(=O)N[C@@H](Cc4ccc5ccccc5c4)C(=O)NC4(C(=O)N[C@@H](CCC(=O)N(C)C)C(=O)N[C@@H](CC(N)=O)C(=O)N[C@@H](Cc5cccnc5)C(=O)N(C)CC(=O)N(C)C)CCOCC4)NC(=O)[C@H](CCC(=O)N(C)C)NC3=O)c[nH]c12 [compound 91, 5cpaCO-Pen(3)-N(N(Me)2)-T-7MeW-Q(N(Me)2)-Pen(3)-AEF(N(Me)2)-2Nal-THP-Q(N(Me)2)-N-3Pya-Sar-CON(Me)2] ({Hexanoyl(6-NMe3+)}-[Pen]D(NMe2)T[Trp(7-Me)]E(NMe2)[Pen]Y(Me2NCH2CH2)[2Nal][Thp]E(NMe2)N[3Pal][Sar]-NMe2; disulfide 1-6)
142 A^2 | CC(=O)N(C)CCCC[C@@H]1NC(=O)[C@H](Cc2c[nH]c3c(C(F)(F)F)cccc23)NC(=O)[C@H]([C@@H](C)O)NC(=O)[C@H](CC(=O)N(C)C)NC(=O)[C@@H](NC(=O)C(F)(F)F)C(C)(C)SSC(C)(C)[C@@H](C(=O)N[C@@H](Cc2ccc(OCCN)cc2)C(=O)N[C@@H](Cc2ccc3ccccc3c2)C(=O)NC2(C(=O)N[C@@H](CCCCN(C)C(C)=O)C(=O)N[C@@H](CC(N)=O)C(=O)N[C@@H](Cc3cccnc3)C(=O)N(C)CC(=O)N(C)C)CCOCC2)NC1=O [compound 94, CF3CO-Pen(3)-N(N(Me)2)-T-7CF3W-K(NMeAc)-Pen(3)-AEF-2Nal-THP-K(NMeAc)-N-3Pya-Sar-CON(Me)2] (Tfa-[Pen]D(NMe2)T[Trp(7-CF3)][Lys(Me)](Ac)[Pen][AEF][2Nal][Thp][Lys(Me)](Ac)N[3Pal][Sar]-NMe2; disulfide 1-6)
